Assay results reported in patent publication US11358952B2, “Substituted 4-aminoisoindoline-1,3-dione compounds, compositions thereof, and methods of treatment therewith” (Celgene Corporation, priority 2018, dated 2022).

Each compound was assayed on SU-DHL-4 cell line (assay: SU-DHL-4 cell proliferation assay (Cell Titer-Glo viability)). Conditions: Homo sapiens; cell viability IC50 activity level, DLBCL cell line SU-DHL-4, 120 hours post-treatment; read-out: SU-DHL-4 Act.
Type: cell-based
Method: SU-DHL-4 Cell Proliferation Assay.
The following is an example of an assay that can be used to determine the anti-proliferative activity of Isoindolinedione Compounds in a DLBCL cell line, for example, the SU-DHL-4 cell line (Deutsche Sammlung von Mikroorganismen and Zellkulturen GmbH [DSMZ]: catalogue number ACC-495) at 120 hours post-treatment. The seeding density for SU-DHL-4 can be optimized to ensure assay linearity in 1536-well plates.
Increasing concentrations of test compounds (0.5 nM to 10 μM) were spotted in a 20-point dilution fashion (unevenly spaced data points) via an acoustic dispenser (EDC ATS-100) into an empty 1536-well plate. The DMSO concentration was kept constant for a final assay concentration of 0.1% DMSO. Prior to testing, SU-DHL-4 cells were grown in RPMI-1640 (Roswell Park Memorial Institute—1640) medium with 10% FBS (fetal bovine serum: HyClone) and expanded in culture flasks to provide sufficient amounts of starting material. Cells were then diluted to 500 cells per well in a 5 μL volume, and added directly to the compound-spotted 1536-well plates. Cells were allowed to grow for 120 hours in 5% CO2 at 37° C. At the time when exposure of cells to compound began (to), initial viable cell number was assessed via Cell Titer-Glo® Luminescent Cell Viability Assay at a 1 vol:2 vol ratio according to manufacturer's instructions (Promega Corporation, Madison, Wis.) by quantifying the level of luminescence generated by adenosine-5′-triphosphate (ATP) present in viable cells. After 120 hours, cell viability of the treated cells was assessed via Cell Titer-Gb® and read for luminescence. All growth inhibition curves were processed and evaluated using Activity Base (IDBS, Alameda, Calif.). Cell viability IC50 values were calculated using a four parameter logistic model (sigmoidal dose-response model): y=(A+((B−A)/(1+((C/x)^D)))) wherein: A=YMin B=YMax C=EC50 D=Hill slope IC50=the concentration of the compound when Y=50% of DMSO control Y=cell viability measured as luminescence unit, and x=concentration of compound.
Compound `O=C1CCC(N2C(=O)c3cccc(NCc4ccc(CN5CC6(CCOCC6)C5)cc4)c3C2=O)C(=O)N1` (stereo not shown) [Cpd 219, 4-(4-(7-oxa-2-azaspiro[3.5]nonan-2-ylmethyl)benzylamino)-2-(2,6-dioxopiperidin-3-yl)isoindoline-1,3-dione] has an IC50 of less than 200 nM. For `C[C@@H]1CN(C2CN(Cc3ccc(CNc4cccc5c4C(=O)N(C4CCC(=O)NC4=O)C5=O)c(F)c3)C2)C[C@H](C)O1` (stereo partly drawn) [Cpd 222, 4-(4-((3-((2R,6S)-2,6-dimethylmorpholino)azetidin-1-yl)methyl)-2-fluorobenzylamino)-2-(2,6-dioxopiperidin-3-yl)isoindoline-1,3-dione], the IC50 was 200 to 500 nM. With `CCC1(OC)CCN(Cc2ccc(CNc3cccc4c3C(=O)N(C3CCC(=O)NC3=O)C4=O)c(F)c2)CC1` (stereo not shown) [Cpd 156, 2-(2,6-dioxopiperidin-3-yl)-4-(4-((4-ethyl-4-methoxypiperidin-1-yl)methyl)-2-fluorobenzylamino)isoindoline-1,3-dione] the IC50 was less than 200 nM. With `O=C1CCC(N2C(=O)c3cccc(NCc4ccc(CN5CC(N6CCCC6)C5)cc4F)c3C2=O)C(=O)N1` (stereo not shown) [Cpd 218, 2-(2,6-dioxopiperidin-3-yl)-4-(2-fluoro-4-((3-(pyrrolidin-1-yl)azetidin-1-yl)methyl)benzylamino)isoindoline-1,3-dione] the IC50 was less than 200 nM. With `Cn1cc(N2CCN(Cc3ccc(CNc4cccc5c4C(=O)N(C4CCC(=O)NC4=O)C5=O)cc3)CC2)cn1` (stereo not shown) [Cpd 195, 2-(2,6-dioxopiperidin-3-yl)-4-(4-((4-(1-methyl-1H-pyrazol-4-yl)piperazin-1-yl)methyl)benzylamino)isoindoline-1,3-dione] the IC50 was 200 to 500 nM. For `O=C1CCC(N2C(=O)c3cccc(NCc4ccc(CN5CCC(C(F)(F)F)CC5)cc4)c3C2=O)C(=O)N1` (stereo not shown) [Cpd 26, 2-(2,6-dioxopiperidin-3-yl)-4-(4-((4-(trifluoromethyl)piperidin-1-yl)methyl)benzylamino)isoindoline-1,3-dione], the IC50 was 200 to 500 nM. Compound `O=C1CCC(N2C(=O)c3cccc(NCc4ccc(CN5CCC6(CCCO6)CC5)cc4)c3C2=O)C(=O)N1` (stereo not shown) [Cpd 90, 4-(4-(1-oxa-8-azaspiro[4.5]decan-8-ylmethyl)benzylamino)-2-(2,6-dioxopiperidin-3-yl)isoindoline-1,3-dione] has an IC50 of less than 200 nM. In the case of `CC(C)OC1CCN(Cc2ccc(CNc3cccc4c3C(=O)N(C3CCC(=O)NC3=O)C4=O)cc2)CC1` (stereo not shown) [Cpd 24, 2-(2,6-dioxopiperidin-3-yl)-4-(4-((4-isopropoxypiperidin-1-yl)methyl)benzylamino)isoindoline-1,3-dione], the IC50 is reported as 200 to 500 nM. With `CCC1CCN(Cc2ccc(CNc3cccc4c3C(=O)N(C3CCC(=O)NC3=O)C4=O)cc2C)CC1` (stereo not shown) [Cpd 41, 2-(2,6-dioxopiperidin-3-yl)-4-(4-((4-ethylpiperidin-1-yl)methyl)-3-methylbenzylamino)isoindoline-1,3-dione] the IC50 was less than 200 nM. `NC(=O)c1ccc(N2CCN(Cc3ccc(CNc4cccc5c4C(=O)N(C4CCC(=O)NC4=O)C5=O)cc3F)CC2)nc1` (stereo not shown) [Cpd 152, 6-(4-(4-((2-(2,6-dioxopiperidin-3-yl)-1,3-dioxoisoindolin-4-ylamino)methyl)-2-fluorobenzyl)piperazin-1-yl)nicotinamide] showed an IC50 of 501 to 750 nM. In the case of `Cc1cc(N2CCN(Cc3ccc(CNc4cccc5c4C(=O)N(C4CCC(=O)NC4=O)C5=O)cc3)CC2)no1` (stereo not shown) [Cpd 199, 2-(2,6-dioxopiperidin-3-yl)-4-(4-((4-(5-methylisoxazol-3-yl)piperazin-1-yl)methyl)benzylamino)isoindoline-1,3-dione], the IC50 is reported as less than 200 nM. `Cc1cc(C#N)ccc1N1CCN(Cc2ccc(CNc3cccc4c3C(=O)N(C3CCC(=O)NC3=O)C4=O)cc2)CC1` (stereo not shown) [Cpd 8, 4-(4-(4-((2-(2,6-dioxopiperidin-3-yl)-1,3-dioxoisoindolin-4-ylamino)methyl)benzyl)piperazin-1-yl)-3-methylbenzonitrile] was tested, and the IC50 was 200 to 500 nM. For `C[C@@H]1CN(c2ccc(Cl)cc2)CCN1Cc1ccc(CNc2cccc3c2C(=O)N(C2CCC(=O)NC2=O)C3=O)cc1` (stereo partly drawn) [Cpd 33, 4-(4-(((R)-4-(4-chlorophenyl)-2-methylpiperazin-1-yl)methyl)benzylamino)-2-(2,6-dioxopiperidin-3-yl)isoindoline-1,3-dione], the IC50 was 200 to 500 nM. `Cc1cc(CNc2cccc3c2C(=O)N(C2CCC(=O)NC2=O)C3=O)ccc1CN1CCN(c2ccc(C#N)cc2C)CC1` (stereo not shown) [Cpd 60, 4-(4-(4-((2-(2,6-dioxopiperidin-3-yl)-1,3-dioxoisoindolin-4-ylamino)methyl)-2-methylbenzyl)piperazin-1-yl)-3-methylbenzonitrile] showed an IC50 of less than 200 nM. Compound `CCCOC1CCN(Cc2ccc(CNc3cccc4c3C(=O)N(C3CCC(=O)NC3=O)C4=O)cc2)CC1` (stereo not shown) [Cpd 124, 2-(2,6-dioxopiperidin-3-yl)-4-(4-((4-propoxypiperidin-1-yl)methyl)benzylamino)isoindoline-1,3-dione] has an IC50 of 501 to 750 nM. `O=C1CCC(N2C(=O)c3cccc(NCc4ccc(CN5CCC(n6cccn6)CC5)cc4F)c3C2=O)C(=O)N1` (stereo not shown) [Cpd 107, 4-(4-((4-(1H-pyrazol-1-yl)piperidin-1-yl)methyl)-2-fluorobenzylamino)-2-(2,6-dioxopiperidin-3-yl)isoindoline-1,3-dione] was tested, and the IC50 was less than 200 nM. Compound `Cc1cc(CNc2cccc3c2C(=O)N(C2CCC(=O)NC2=O)C3=O)ccc1CN1CCC2(CCOC2)CC1` (stereo not shown) [Cpd 233, 4-(4-(2-oxa-8-azaspiro[4.5]decan-8-ylmethyl)-3-methylbenzylamino)-2-(2,6-dioxopiperidin-3-yl)isoindoline-1,3-dione] has an IC50 of less than 200 nM. With `Cc1cc(CNc2cccc3c2C(=O)N(C2CCC(=O)NC2=O)C3=O)ccc1CN1CC(N2CCOCC2(C)C)C1` (stereo not shown) [Cpd 238, 4-(4-((3-(3,3-dimethylmorpholino)azetidin-1-yl)methyl)-3-methylbenzylamino)-2-(2,6-dioxopiperidin-3-yl)isoindoline-1,3-dione] the IC50 was less than 200 nM. `O=C1CCC(N2C(=O)c3cccc(NCc4ccc(CN5CCN(c6cnccn6)CC5)cc4)c3C2=O)C(=O)N1` (stereo not shown) [Cpd 185, 2-(2,6-dioxopiperidin-3-yl)-4-(4-((4-(pyrazin-2-yl)piperazin-1-yl)methyl)benzylamino)isoindoline-1,3-dione] was tested, and the IC50 was 200 to 500 nM. With `Cc1cc(CNc2cccc3c2C(=O)N(C2CCC(=O)NC2=O)C3=O)ccc1CN1CCC(n2cccn2)CC1` (stereo not shown) [Cpd 56, 4-(4-((4-(1H-pyrazol-1-yl)piperidin-1-yl)methyl)-3-methylbenzylamino)-2-(2,6-dioxopiperidin-3-yl)isoindoline-1,3-dione] the IC50 was less than 200 nM. With `Cc1cc(CNc2cccc3c2C(=O)N(C2CCC(=O)NC2=O)C3=O)ccc1CN1CC2(CCOCC2)C1` (stereo not shown) [Cpd 220, 4-(4-(7-oxa-2-azaspiro[3.5]nonan-2-ylmethyl)-3-methylbenzylamino)-2-(2,6-dioxopiperidin-3-yl)isoindoline-1,3-dione] the IC50 was less than 200 nM. `CC(C)(C)N1CCN(Cc2ccc(CNc3cccc4c3C(=O)N(C3CCC(=O)NC3=O)C4=O)c(F)c2)CC1` (stereo not shown) [Cpd 95, 4-(4-((4-tert-butylpiperazin-1-yl)methyl)-2-fluorobenzylamino)-2-(2,6-dioxopiperidin-3-yl)isoindoline-1,3-dione] showed an IC50 of less than 200 nM. For `Cc1cc(CNc2cccc3c2C(=O)N(C2CCC(=O)NC2=O)C3=O)ccc1CN1CCCOCC1` (stereo not shown) [Cpd 244, 4-(4-((1,4-oxazepan-4-yl)methyl)-3-methylbenzylamino)-2-(2,6-dioxopiperidin-3-yl)isoindoline-1,3-dione], the IC50 was 501 to 750 nM. `Cc1cc(C#N)cc(F)c1N1CCN(Cc2ccc(CNc3cccc4c3C(=O)N(C3CCC(=O)NC3=O)C4=O)cc2)CC1` (stereo not shown) [Cpd 27, 4-(4-(4-((2-(2,6-dioxopiperidin-3-yl)-1,3-dioxoisoindolin-4-ylamino)methyl)benzyl)piperazin-1-yl)-3-fluoro-5-methylbenzonitrile] showed an IC50 of 200 to 500 nM. `O=C1CCC(N2C(=O)c3cccc(NCc4ccc(CN5CC6(C5)CC(F)(F)C6)cc4)c3C2=O)C(=O)N1` (stereo not shown) [Cpd 116, 4-(4-((6,6-difluoro-2-azaspiro[3.3]heptan-2-yl)methyl)benzylamino)-2-(2,6-dioxopiperidin-3-yl)isoindoline-1,3-dione] gave an IC50 of 751 to 1000 nM. `O=C1CCC(N2C(=O)c3cccc(NCc4ccc(CN5CCN(c6ncsn6)CC5)cc4)c3C2=O)C(=O)N1` (stereo not shown) [Cpd 196, 4-(4-((4-(1,2,4,-thiadiazol-3-yl)piperazin-1-yl)methyl)benzylamino)-2-(2,6-dioxopiperidin-3-yl)isoindoline-1,3-dione] gave an IC50 of less than 200 nM. With `CC1(C)CCN(Cc2ccc(CNc3cccc4c3C(=O)N(C3CCC(=O)NC3=O)C4=O)cc2)CC1` (stereo not shown) [Cpd 36, 4-(4-((4,4-dimethylpiperidin-1-yl)methyl)benzylamino)-2-(2,6-dioxopiperidin-3-yl)isoindoline-1,3-dione] the IC50 was 200 to 500 nM. `Cc1nnc(N2CCN(Cc3ccc(CNc4cccc5c4C(=O)N(C4CCC(=O)NC4=O)C5=O)cc3)CC2)s1` (stereo not shown) [Cpd 193, 2-(2,6-dioxopiperidin-3-yl)-4-(4-((4-(5-methyl-1,3,4-thiadiazol-2-yl)piperazin-1-yl)methyl)benzylamino)isoindoline-1,3-dione] showed an IC50 of 200 to 500 nM.
